Consider four compounds from patent US20160095958A1, “BONE REGENERATION USING STROMAL VASCULAR FRACTION, PLATELET-DERIVED GROWTH FACTOR-RICH HYDROGEL, THREE-DIMENSIONAL PRINTED POLY-EPSILON-CAPROLACTONE SCAFFOLDS” (THE JOHNS HOPKINS UNIVERSITY, priority 2013, published 2016).

Holding throughout (type): cell-based, human
The subject of assay [1] is ASCs. Briefly: Monolayer osteogenic differentiation of ASCs (Alizarin Red S, calcium quantification). Particulars: for calcium deposition per cell / total calcium deposition: ASCs in OM for 21 days, PDGF-BB 0, 2, 20 ng/mL or AG1295 0, 1, 10 μM. The method, then:
(§1) Vascular medium (VM) consisted of: Endothelial Basal Medium-2 (Lonza), 6% FBS, 1% penicillin/streptomycin, 10 ng/mL VEGF165, 1 ng/mL FGF-2, and 1 μg/mL L-ascorbic acid-2-phosphate (Sigma). For monolayer osteogenic differentiation experiments, control medium consisted of low glucose DMEM (GIBCO Invitrogen), 6% FBS, and 1% penicillin/streptomycin; Osteogenic Medium (OM) consisted of control medium plus 10 mM β-glycerophosphate (Sigma) and 50 μM L-ascorbic acid-2-phosphate. For osteogenic differentiation in fibrin gels, OM also included 10 ng/mL VEGF165 and 1 ng/mL FGF-2 to support vascular viability. The composition of FGF-2 and dexamethasone in VM and OM were optimized to support both vascular and osteogenic development (FIG. 2). […] All growth factors were purchased from PeproTech.
(§2) For monolayer experiments, ASCs were seeded at 5000 cells/cm^2 and cultured in either control medium or OM for 21 days, with the addition of either PDGF-BB or PDGF receptor inhibitor tyrphostin AG1295 (Santa Cruz Biotechnology). Mineralization was assessed via Alizarin Red S staining and quantification of calcium content. For fibrin gel experiments, samples were cultured in VM for up to 8 days followed by up to 12 days of OM supplemented with VEGF and FGF-2. Mineralization was assessed via quantification of calcium content normalized to DNA content. For Alizarin Red S staining, monolayers were washed twice with PBS, fixed with 3.7% formaldehyde for 20 min, and then washed again three times. Samples were subsequently incubated for 10 min with 40 mM Alizarin Red S (Sigma) and washed extensively prior to imaging. To quantify calcium content in each sample, monolayers or whole fibrin gels were washed twice with PBS and then incubated with 0.5 N HCl overnight at 4° C. with agitation. Calcium content in the sample supernatants was quantified using a colorimetric Calcium LiquiColor Test (Stanbio). DNA content was quantified using a PicoGreen dsDNA quantitation kit (Molecular Probes) as previously described. Hutton D. L., et al., Tissue Eng Part A 18, 1729-40, 2012.
The effects of exogenous PDGF-BB on osteogenic differentiation and vascular morphogenesis of ASCs were studied independently. ASCs were cultured in OM for 21 days with the addition of either PDGF-BB (0 ng/mL, 2 ng/mL, or 20 ng/mL) or PDGF receptor inhibitor AG1295 (0 μM, 1 μM, or 10 μM).

Assay [2] deals with ASCs. The experiment in a line: Vascular morphogenesis of fibrin-encapsulated ASC spheroids in vascular medium. The procedure: Cells were trypsinized and resuspended at a concentration of 400,000 cells/mL (this concentration varied in the aggregation study where different cluster sizes were being compared) in culture medium containing 0.24% (w/v) methylcellulose (Sigma). The cell suspension was pipetted as 10 μL drops onto inverted Petri dish caps, which were then reverted and placed on dish bottoms containing sterile water to reduce evaporation. Dishes were incubated at 37° C. overnight to allow cellular aggregation at the air-liquid interface. The dish caps were then flooded with PBS to allow bulk collection and transfer of the spheroids to conical tubes.
(§3) Settled spheroid pellets were resuspended in fibrinogen (8 mg/mL final; Sigma), followed by the addition of thrombin (2.5 U/mL final; Sigma) to initiate gelation. Fibrin gels (35 μL) containing 40 spheroids each (in the aggregation study the number of spheroids per gel was varied to keep the total cell number constant) were pipetted into 6-mm diameter wells and incubated at 37° C. for 30 minutes to allow complete gelation prior to the addition of culture medium. Samples were then cultured for two to three weeks, depending on the experiment, with media changed every other day.
as §1
(§4) All incubation and washing steps were carried out at 4° C. with gentle agitation. Samples were fixed with 3.7% formaldehyde for 3 hrs, and then washed with PBS three times for 30 min each. Fixed gels were carefully removed from their wells and transferred to microcentrifuge tubes for subsequent staining procedures. Gels were permeabilized and blocked for 4 hrs with 0.2% triton X-100 and 5% normal goat serum (Sigma) in PBS with 0.1% Tween (PTw). Samples were then incubated overnight with primary antibodies diluted in blocking solution, followed by three 1-hr washes in PTw. Primary antibodies included: mouse anti-CD31 (4 μg/mL; Santa Cruz Biotechnology) and either rabbit anti-laminin (7 μg/mL; Sigma), rabbit anti-osteocalcin (10 μg/mL; Santa Cruz Biotechnology), or rabbit anti-NG2 (10 μg/mL; Millipore). Samples were then incubated overnight with DyLight 488-conjugated goat anti-mouse and DyLight 649-conjugated goat anti-rabbit (both 1:400; Jackson ImmunoResearch) diluted in blocking solution, followed by three 1-hr washes in PTw. Lastly, samples were blocked in 5% normal mouse serum for 4 hrs, incubated overnight with Cy3-conjugated mouse anti-αSMA (7 μg/mL; Sigma), and then washed three times for 1 hr each. Gels were mounted in 70% glycerol in chamber slides and imaged using a Zeiss LSM 510 confocal microscope with a 5× objective.
Confocal z-stacks of immunostained gels were z-projected and thresholded for subsequent quantification of vessel network parameters (n=6 images per group). Thresholded images were analyzed with AngioQuant software, Niemisto A., et al., IEEE Trans Med Imaging 24, 549-53, 2005, to quantify total vessel length, area, and interconnectivity. ImageJ software (NIH) was used to quantify pericyte coverage of vessels, which was defined as αSMA+ area within at least 5 μm of the abluminal face of vessel networks. […]

Assay [3] deals with adipose-derived stem cells (ASCs). Briefly: Osteogenic differentiation of ASCs with transient cytokine exposure. Particulars: IL-1β only for the first two days, then cultured without it. The text has this: In each case, the cytokine was provided for the first two days of culture and removed for the remaining 19 days. The samples are stained for calcium deposition (red) which is indicative of new bone formation;
Accordingly, cells were provided with IL-1β only for the first two days and cultured in the absence of IL-1β for the remaining three weeks of culture.

Assay [4] relates to ASCs. Briefly: Vascularized bone co-development: encapsulated ASC spheroids, VM 8 days then OM 12 days. The procedure:
as §3
as §1, with “viability.” for “viability. The composition of FGF-2 and dexamethasone in VM and OM were optimized to support both vascular and osteogenic development (FIG. 2).”
as §2, §4

Setting [5] is: medium optimization with dexamethasone and FGF-2.

On to `Cc1cc2ncc(-c3ccccc3)nc2cc1C` [AG1295, tyrphostin AG1295, reference compound], for which, in assay [1], the “calcium deposition per cell” value is given as “unchanged relative to the OM only group” and the total calcium deposition entry is “decreased in a dose dependent manner”. Besides, the pericyte coverage entry in assay [2] (VM for 14 days) is listed as “only slightly reduced”.
On to “FGF-2: fibroblast growth factor-2 (PeproTech)”, for which, in assay [1] (1 ng/mL FGF-2, dexamethasone 0 nM to 10 nM), the “calcium deposition in osteogenic cultures” value was “significantly greater calcium deposition”. In assay [2] (setting [5]), the “pericyte coverage in vascular cultures” value is given as “slight increase”, the “vessel network growth / length in vascular cultures” value is on record as “slight increase” and the “vessel width in vascular cultures” value is listed as “increased vessel width”.
On to IL-1β: pro-inflammatory cytokine, for which the “ASC differentiation into bone-forming cells” value in assay [3] is recorded as “dose dependent effect”.
As for “PDGF-BB: exogenous platelet-derived growth factor-BB, dimeric glycoprotein of two B chains, purchased from PeproTech”, in assay [1], the “calcium deposition per cell” value is listed as “significantly increased in a dose-dependent manner” and the total calcium deposition result is recorded as “significantly increased in a dose-dependent manner”. Besides, in assay [2] (2 ng/mL, VM for 14 days), the “increase in total vessel length” value is 1.4 fold. In assay [2] (20 ng/mL, VM for 14 days), the vessel width entry is listed as “noticeably wider”. Moreover, in assay [2] (VM for 14 days), the “effect on total vessel length overall” value is “did not have statistically significant effects” and the “reduction of pericyte coverage” value came out at 2.9 fold. For the same compound, in assay [4] (20 ng/mL), the “calcium content versus control group (VM-OM)” value is recorded as “substantially greater than both” and the “vascular network length versus control group (VM-OM)” value is on record as “substantially greater than both”. Further, in assay [4] (20 ng/mL each), the “calcium deposition, PDGF-BB greater than BMP-2” value turned out to be 4.2 fold; the “calcium per cell, PDGF-BB greater than BMP-2” value is 5.6 fold; the “total vascular network length, PDGF-BB higher than BMP-2” value turned out to be 2.3 fold. Further, in assay [4] (20 ng/mL throughout), the “calcium content per cell, greater than without PDGF-BB” value was 5.2 fold; the “osteocalcin production (semiquantitative), greater than without PDGF-BB” value is given as 1.4 fold; the “vascular network length, greater than without PDGF-BB” value is 2.7 fold; the “αSMA intensity, less than without PDGF-BB” value turned out to be 2.1 fold.
